# Read-outs that look alike come from different tables or passages of the source. Numbered stars: 1 amine (or outer) side, 2 acyl side, 3 side chain; on linkers, the order of the positions; unused ones are H or OH. Bridge positions count the residues as written; N and C are the ends. Peptide text beside a SMILES is read from it. * marks the point of attachment. X1 = O=C(O)CN1CCN(CC(=O)O)CCN(CC(=O)N2CCN(Cc3cc(C[*:1])cc(C[*:2])c3)CC2)CCN(CC(=O)O)CC1; Hexanoyl = CCCCCC(=O)*
# Experiments:
# BZD (central) = conditions: 10 μM
# [1] = system: serine protease NS3 (a.a. 3-181) from Hepatitis C virus genotype 1b
# [2] = system: serine protease NS3 (a.a. 3-181) from Hepatitis C virus genotype 1b (mutant R155K)
# [3] = system: serine protease NS3 (a.a. 3-181) from Hepatitis C virus genotype 1b (mutant R155Q)
# A2A (h) = A2A (h) (Homo sapiens, UniProt P29274); test: biochemical; conditions: read-out: % Inhibition of Specific Binding
# beta 1 (h) = beta 1 (h) (Homo sapiens, UniProt P08588); test: biochemical; conditions: read-out: % Inhibition of Specific Binding
# D1 (h) = D1 (h) (Homo sapiens, UniProt P21728); test: biochemical; conditions: read-out: % Inhibition of Specific Binding
# D2S (h) = D2S (h) (Homo sapiens, UniProt P14416); test: biochemical; conditions: read-out: % Inhibition of Specific Binding
# ETA (h) = ETA (h) (Homo sapiens, UniProt P25101); test: biochemical; conditions: read-out: % Inhibition of Specific Binding
# H2 (h) = H2 (h) (Homo sapiens, UniProt P25021); test: biochemical; conditions: read-out: % Inhibition of Specific Binding
# MAO-A = MAO-A (Rattus norvegicus, UniProt P21396); test: biochemical; conditions: read-out: % Inhibition of Specific Binding
# [4] = target: N neuronal alpha 4beta 2 (h) (Homo sapiens, UniProt P17787+P43681); test: biochemical; conditions: read-out: % Inhibition of Specific Binding
# PDE4D2 (h) = PDE4D2 (h) (Homo sapiens, UniProt Q08499); test: biochemical; conditions: read-out: % Inhibition of Specific Binding
# Acetylcholinesterase (h) = Acetylcholinesterase (h) (Homo sapiens, UniProt P22303); test: biochemical; conditions: read-out: % Inhibition of Specific Binding
# Caspase-9 = Caspase-9 (Homo sapiens, UniProt P55211); test: biochemical; conditions: read-out: Percentage inhibition (%)
# [5] = target: T1, Ubiquitin carboxy-terminal hydrolase L1 (Homo sapiens, UniProt P09936); test: biochemical; conditions: read-out: Percentage inhibition (%)
# T1 sequence (P09936 1-223): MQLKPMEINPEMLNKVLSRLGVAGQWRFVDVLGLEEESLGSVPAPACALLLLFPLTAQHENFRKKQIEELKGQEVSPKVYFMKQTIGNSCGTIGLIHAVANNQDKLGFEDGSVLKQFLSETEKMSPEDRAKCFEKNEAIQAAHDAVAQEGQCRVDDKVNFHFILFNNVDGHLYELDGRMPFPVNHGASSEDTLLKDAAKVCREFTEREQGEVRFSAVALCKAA
# [6] = target: T2, Ubiquitin carboxyl-terminal hydrolase 8 (Homo sapiens, UniProt P40818); test: biochemical; conditions: read-out: Percentage inhibition (%)
# T2 sequence (P40818 1-1118): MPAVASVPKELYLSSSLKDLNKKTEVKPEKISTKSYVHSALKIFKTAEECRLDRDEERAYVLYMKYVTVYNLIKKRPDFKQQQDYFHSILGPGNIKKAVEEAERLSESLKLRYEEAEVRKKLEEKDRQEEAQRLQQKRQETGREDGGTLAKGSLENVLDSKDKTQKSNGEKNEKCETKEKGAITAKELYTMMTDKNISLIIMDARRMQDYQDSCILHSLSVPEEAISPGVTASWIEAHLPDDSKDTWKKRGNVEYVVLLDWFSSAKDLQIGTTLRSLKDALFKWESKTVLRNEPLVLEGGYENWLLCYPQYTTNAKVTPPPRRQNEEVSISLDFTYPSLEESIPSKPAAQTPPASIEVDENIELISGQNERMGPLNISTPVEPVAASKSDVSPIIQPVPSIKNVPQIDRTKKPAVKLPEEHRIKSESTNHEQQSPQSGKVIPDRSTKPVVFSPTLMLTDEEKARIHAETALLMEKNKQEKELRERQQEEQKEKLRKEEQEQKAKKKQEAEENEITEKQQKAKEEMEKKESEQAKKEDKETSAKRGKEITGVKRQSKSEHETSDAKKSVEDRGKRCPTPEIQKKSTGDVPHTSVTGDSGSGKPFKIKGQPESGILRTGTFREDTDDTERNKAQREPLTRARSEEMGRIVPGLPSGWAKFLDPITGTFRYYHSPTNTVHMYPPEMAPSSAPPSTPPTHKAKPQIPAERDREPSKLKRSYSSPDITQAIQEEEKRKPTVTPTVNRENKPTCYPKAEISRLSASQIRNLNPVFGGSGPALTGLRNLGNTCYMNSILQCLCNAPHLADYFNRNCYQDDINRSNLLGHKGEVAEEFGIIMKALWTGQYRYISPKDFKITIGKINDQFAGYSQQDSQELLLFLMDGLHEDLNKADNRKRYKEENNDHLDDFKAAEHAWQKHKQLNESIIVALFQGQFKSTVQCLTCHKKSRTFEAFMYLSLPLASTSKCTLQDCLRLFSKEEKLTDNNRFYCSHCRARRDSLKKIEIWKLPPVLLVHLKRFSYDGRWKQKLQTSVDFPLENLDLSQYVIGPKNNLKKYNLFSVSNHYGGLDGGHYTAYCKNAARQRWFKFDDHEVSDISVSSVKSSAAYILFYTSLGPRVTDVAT
# FAP = FAP (Homo sapiens, UniProt Q12884); test: biochemical; conditions: read-out: Percentage inhibition (%)
# [7] = target: serine protease NS3 (a.a. 3-181) from Hepatitis C virus genotype 2a (Hepatitis C virus genotype 2a, UniProt Q99IB8); test: biochemical; conditions: read-out: Percentage inhibition (%)
# Sequence of serine protease NS3 (a.a. 3-181) from Hepatitis C virus genotype 2a (Q99IB8 1033-1211 limits assumed, other chains not shown): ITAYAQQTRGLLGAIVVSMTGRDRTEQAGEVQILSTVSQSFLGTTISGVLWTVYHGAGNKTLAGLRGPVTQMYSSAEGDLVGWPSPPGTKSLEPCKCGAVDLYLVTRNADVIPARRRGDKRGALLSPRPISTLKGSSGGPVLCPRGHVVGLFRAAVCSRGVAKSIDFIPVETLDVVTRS
# Sequence of FAP (Q12884 whole entry): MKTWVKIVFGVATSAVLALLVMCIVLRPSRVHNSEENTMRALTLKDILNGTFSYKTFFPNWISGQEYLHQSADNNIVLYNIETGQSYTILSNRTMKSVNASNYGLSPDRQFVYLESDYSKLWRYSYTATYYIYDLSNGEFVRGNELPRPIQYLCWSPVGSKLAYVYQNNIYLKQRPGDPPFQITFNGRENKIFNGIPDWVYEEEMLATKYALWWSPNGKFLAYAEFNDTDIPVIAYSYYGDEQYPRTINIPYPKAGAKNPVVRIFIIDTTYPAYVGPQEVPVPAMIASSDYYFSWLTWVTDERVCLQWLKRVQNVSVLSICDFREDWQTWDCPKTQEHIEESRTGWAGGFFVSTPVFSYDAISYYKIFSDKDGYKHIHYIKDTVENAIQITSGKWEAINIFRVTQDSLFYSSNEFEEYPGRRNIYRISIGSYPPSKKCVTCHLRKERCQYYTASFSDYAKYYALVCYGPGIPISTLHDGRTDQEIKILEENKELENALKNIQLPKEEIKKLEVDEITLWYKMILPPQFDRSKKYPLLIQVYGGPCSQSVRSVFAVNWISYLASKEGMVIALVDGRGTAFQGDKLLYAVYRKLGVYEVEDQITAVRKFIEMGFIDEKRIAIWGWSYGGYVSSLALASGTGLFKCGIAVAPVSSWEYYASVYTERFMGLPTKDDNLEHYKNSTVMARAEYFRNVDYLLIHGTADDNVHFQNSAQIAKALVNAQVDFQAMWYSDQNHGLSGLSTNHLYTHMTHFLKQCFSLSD
# Sequence of Caspase-9 (P55211 1-315 limits assumed, species assumed): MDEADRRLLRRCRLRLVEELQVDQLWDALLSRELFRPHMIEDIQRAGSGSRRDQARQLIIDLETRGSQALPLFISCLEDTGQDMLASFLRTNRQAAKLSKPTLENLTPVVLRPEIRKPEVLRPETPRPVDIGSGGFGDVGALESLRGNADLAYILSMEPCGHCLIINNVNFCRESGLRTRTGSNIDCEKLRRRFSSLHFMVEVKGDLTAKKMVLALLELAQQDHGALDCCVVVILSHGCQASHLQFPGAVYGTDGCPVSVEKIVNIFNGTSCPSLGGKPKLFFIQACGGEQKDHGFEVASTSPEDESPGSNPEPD
# Sequence of Caspase-9 (P55211 331-416 limits assumed, species assumed): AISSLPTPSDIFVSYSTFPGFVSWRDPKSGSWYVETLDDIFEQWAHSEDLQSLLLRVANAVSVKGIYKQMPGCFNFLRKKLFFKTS
# Sequence of N neuronal alpha 4beta 2 (h) (P17787 26-502): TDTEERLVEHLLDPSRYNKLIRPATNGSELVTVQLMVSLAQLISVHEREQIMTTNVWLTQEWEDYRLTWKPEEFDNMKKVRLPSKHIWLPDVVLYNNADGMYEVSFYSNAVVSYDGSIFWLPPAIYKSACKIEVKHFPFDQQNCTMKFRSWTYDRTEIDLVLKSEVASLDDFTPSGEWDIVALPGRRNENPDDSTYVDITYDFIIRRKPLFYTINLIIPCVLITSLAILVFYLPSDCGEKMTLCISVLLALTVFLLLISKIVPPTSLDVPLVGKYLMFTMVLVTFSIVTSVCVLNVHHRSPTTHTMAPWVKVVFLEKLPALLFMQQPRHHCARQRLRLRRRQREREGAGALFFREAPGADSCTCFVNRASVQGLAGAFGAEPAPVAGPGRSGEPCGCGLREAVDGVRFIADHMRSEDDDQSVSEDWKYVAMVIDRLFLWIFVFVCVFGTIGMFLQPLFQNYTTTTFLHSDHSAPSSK
# Sequence of N neuronal alpha 4beta 2 (h) (P43681 29-627): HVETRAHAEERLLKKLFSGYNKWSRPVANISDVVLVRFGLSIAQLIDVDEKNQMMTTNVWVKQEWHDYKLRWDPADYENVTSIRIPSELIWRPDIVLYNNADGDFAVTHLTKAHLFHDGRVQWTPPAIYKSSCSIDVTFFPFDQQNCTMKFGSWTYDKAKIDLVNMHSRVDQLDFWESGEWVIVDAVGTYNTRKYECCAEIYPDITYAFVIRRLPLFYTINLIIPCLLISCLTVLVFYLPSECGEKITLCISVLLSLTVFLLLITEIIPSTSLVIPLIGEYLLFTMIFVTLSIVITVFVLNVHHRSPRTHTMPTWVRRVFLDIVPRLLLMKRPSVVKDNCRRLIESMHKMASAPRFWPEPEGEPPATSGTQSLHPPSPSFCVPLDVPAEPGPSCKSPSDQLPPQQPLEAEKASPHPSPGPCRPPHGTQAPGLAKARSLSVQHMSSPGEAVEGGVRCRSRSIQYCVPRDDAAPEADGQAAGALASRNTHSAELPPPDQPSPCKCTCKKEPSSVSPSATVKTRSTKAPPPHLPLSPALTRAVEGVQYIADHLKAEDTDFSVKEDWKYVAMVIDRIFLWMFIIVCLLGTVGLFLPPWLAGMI
# Sequence of ETA (h) (P25101 21-427): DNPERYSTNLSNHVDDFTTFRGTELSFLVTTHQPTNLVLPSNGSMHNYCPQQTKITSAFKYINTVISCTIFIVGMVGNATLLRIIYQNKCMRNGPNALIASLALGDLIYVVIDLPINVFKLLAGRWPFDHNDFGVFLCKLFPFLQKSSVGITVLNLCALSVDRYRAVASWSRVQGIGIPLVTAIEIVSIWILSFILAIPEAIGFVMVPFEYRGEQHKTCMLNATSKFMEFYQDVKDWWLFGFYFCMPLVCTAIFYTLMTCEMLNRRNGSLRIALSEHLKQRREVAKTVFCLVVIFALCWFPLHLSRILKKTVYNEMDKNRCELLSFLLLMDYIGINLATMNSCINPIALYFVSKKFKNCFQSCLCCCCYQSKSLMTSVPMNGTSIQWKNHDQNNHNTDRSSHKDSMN
# Sequence of H2 (h) (P25021 whole entry): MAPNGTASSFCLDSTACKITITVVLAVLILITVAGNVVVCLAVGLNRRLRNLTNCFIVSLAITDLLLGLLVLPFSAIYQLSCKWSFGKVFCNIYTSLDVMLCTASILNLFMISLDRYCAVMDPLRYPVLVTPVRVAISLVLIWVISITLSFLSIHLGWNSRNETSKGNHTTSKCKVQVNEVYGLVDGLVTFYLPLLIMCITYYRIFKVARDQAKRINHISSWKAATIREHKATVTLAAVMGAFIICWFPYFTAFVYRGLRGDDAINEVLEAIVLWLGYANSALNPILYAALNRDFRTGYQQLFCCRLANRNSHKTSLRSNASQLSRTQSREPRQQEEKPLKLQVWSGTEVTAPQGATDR
# Sequence of beta 1 (h) (P08588 whole entry): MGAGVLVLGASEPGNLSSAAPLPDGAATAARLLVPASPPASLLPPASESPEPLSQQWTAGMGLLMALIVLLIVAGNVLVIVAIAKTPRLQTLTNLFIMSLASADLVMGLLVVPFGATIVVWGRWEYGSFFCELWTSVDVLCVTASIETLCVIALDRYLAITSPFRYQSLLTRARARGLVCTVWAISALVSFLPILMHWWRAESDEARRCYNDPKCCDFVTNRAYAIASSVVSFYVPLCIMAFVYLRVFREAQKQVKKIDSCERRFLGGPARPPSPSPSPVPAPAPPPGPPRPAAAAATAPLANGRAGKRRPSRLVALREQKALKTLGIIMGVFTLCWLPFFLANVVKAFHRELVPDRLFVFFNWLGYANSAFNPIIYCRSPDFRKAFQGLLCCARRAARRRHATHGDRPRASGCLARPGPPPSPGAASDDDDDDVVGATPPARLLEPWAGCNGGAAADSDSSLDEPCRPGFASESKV
# Sequence of D1 (h) (P21728 whole entry): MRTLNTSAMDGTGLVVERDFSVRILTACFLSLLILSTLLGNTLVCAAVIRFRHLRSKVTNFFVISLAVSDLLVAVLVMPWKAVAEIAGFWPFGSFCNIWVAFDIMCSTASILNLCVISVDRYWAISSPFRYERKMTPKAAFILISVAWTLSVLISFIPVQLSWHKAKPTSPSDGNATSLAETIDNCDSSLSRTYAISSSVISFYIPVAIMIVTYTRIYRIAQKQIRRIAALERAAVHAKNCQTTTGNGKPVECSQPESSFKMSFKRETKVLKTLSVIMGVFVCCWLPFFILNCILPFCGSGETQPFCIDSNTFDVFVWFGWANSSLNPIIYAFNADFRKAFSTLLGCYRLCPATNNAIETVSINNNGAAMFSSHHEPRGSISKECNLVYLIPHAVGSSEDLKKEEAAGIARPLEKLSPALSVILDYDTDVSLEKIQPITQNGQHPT
# Sequence of PDE4D2 (h) (Q08499 303-809): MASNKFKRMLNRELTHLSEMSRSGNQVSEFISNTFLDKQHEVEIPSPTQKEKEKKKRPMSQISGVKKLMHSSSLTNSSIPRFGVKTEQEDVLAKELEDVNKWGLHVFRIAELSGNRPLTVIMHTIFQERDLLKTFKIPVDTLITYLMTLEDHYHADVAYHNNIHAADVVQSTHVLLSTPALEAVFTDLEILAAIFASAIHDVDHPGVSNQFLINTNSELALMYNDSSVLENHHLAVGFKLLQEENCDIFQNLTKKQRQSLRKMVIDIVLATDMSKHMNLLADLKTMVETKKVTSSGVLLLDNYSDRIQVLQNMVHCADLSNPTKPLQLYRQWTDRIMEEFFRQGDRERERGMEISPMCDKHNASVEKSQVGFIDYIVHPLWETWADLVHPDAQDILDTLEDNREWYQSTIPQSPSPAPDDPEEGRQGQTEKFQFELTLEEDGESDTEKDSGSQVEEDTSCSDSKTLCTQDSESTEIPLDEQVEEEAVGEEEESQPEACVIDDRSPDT
smiles,measurement,setting,value
"CCCCCC(=O)N[C@H]1CSCc2cc(CSCCNC(=O)CN3CCN(CC(=O)O)CCN(CC(=O)O)CCN(CC(=O)O)CC3)cc(c2)CSC[C@@H](C(=O)O)NC(=O)[C@H](Cc2ccccc2)NC(=O)[C@H](CCC(N)=O)NC(=O)[C@H]([C@@H](C)O)NC(=O)[C@@H]2CCCN2C(=O)[C@@H]2CCCN2C1=O [Compound 3BP-3554, Hex-[Cys(tMeBn(DOTA-AET))-Pro-Pro-Thr-Gln-Phe-Cys]-OH]",% Inhibition of Specific Binding,BZD (central),5%
same,Percentage inhibition (%),[1]; 1 μM,−5%
same,Percentage inhibition (%),[1]; 10 μM,−9%
same,Percentage inhibition (%),[2]; 1 μM,−1%
same,Percentage inhibition (%),[2]; 10 μM,0%
same,Percentage inhibition (%),[3]; 1 μM,0%
same,Percentage inhibition (%),[3]; 10 μM,−5%
same,inhibition at 10 µM,A2A (h),-16%
same,inhibition at 10 µM,beta 1 (h),-13%
same,inhibition at 10 µM,D1 (h),7%
same,inhibition at 10 µM,D2S (h),-7%
same,inhibition at 10 µM,ETA (h),6%
same,inhibition at 10 µM,H2 (h),-16%
same,inhibition at 10 µM,MAO-A,-25%
same,inhibition at 10 µM,[4],-2%
same,inhibition at 10 µM,PDE4D2 (h),-4%
same,inhibition at 10 µM,Acetylcholinesterase (h),1%
same,inhibition at 1 µM,Caspase-9,-1%
same,inhibition at 10 µM,Caspase-9,-2%
same,inhibition at 1 µM,[5],-4%
same,inhibition at 10 µM,[5],4%
same,inhibition at 1 µM,[6],2%
same,inhibition at 10 µM,[6],1%
same,inhibition at 1 µM,FAP,97%
same,inhibition at 10 µM,FAP,99%
same,inhibition at 1 µM,[7],-13%
same,inhibition at 10 µM,[7],-40%
"CCCCCC(=O)N[C@H]1CSCc2cc(cc(CN3CCN(C(=O)CN4CCN(CC(=O)O)CCN(CC(=O)O)CCN(CC(=O)O)CC4)CC3)c2)CSC[C@@H](C(=O)N[C@@H](CC(=O)O)C(N)=O)NC(=O)[C@H](Cc2ccccc2)NC(=O)[C@H](CCC(N)=O)NC(=O)[C@H]([C@@H](C)O)NC(=O)[C@@H]2CCCN2C(=O)[C@@H]2CCCN2C1=O [Compound 3BP-3407, Hex-[Cys(tMeBn(DOTA-PP))-Pro-Pro-Thr-Gln-Phe-Cys]-Asp-NH2] (Hexanoyl-CPPTQFCD-NH2; linker 1-7 via X1)",% Inhibition of Specific Binding,BZD (central),−9%
same,Percentage inhibition (%),[1]; 1 μM,1%
same,Percentage inhibition (%),[1]; 10 μM,5%
same,Percentage inhibition (%),[2]; 1 μM,−2%
same,Percentage inhibition (%),[2]; 10 μM,5%
same,Percentage inhibition (%),[3]; 1 μM,0%
same,Percentage inhibition (%),[3]; 10 μM,2%
same,inhibition at 10 µM,A2A (h),-4%
same,inhibition at 10 µM,beta 1 (h),4%
same,inhibition at 10 µM,D1 (h),0%
same,inhibition at 10 µM,D2S (h),15%
same,inhibition at 10 µM,ETA (h),-18%
same,inhibition at 10 µM,H2 (h),-5%
same,inhibition at 10 µM,MAO-A,-5%
same,inhibition at 10 µM,[4],-8%
same,inhibition at 10 µM,PDE4D2 (h),-5%
same,inhibition at 10 µM,Acetylcholinesterase (h),-6%
same,inhibition at 1 µM,Caspase-9,5%
same,inhibition at 10 µM,Caspase-9,8%
same,inhibition at 1 µM,[5],-2%
same,inhibition at 10 µM,[5],4%
same,inhibition at 1 µM,[6],-3%
same,inhibition at 10 µM,[6],6%
same,inhibition at 1 µM,FAP,98%
same,inhibition at 10 µM,FAP,99%
same,inhibition at 1 µM,[7],0%
same,inhibition at 10 µM,[7],-2%
